Experimental findings from patent US8852895B2, “Macrocyclic derivative and assemblies formed therefrom” (University College Dublin, National University of Ireland, priority 2008, dated 2014) are described below.

For data set [1] the following is noted: DLS, 0.1 mg/mL cyclodextrin in water. The protocol:
A 50 μL aliquot of the stock solution (0.5 mg of cyclodextrin) was transferred to a glass vial. The solvent was evaporated slowly in order to form a thin film of cyclodextrin on the surface of the glass. Millipore water (5 mL) was then used to hydrate the film giving a cyclodextrin solution with a concentration of 0.1 mg/mL. The vial was capped and placed in an oven for 90 minutes at 60° C. The cyclodextrin solutions were then filtered through a 0.45 μm Gelman Acrodisk syringe filter into a fluorimeter cuvette to remove any particles and macro aggregates. DLS investigations of these solutions were carried out using a Malvern Autosizer 4700 equipped with an Innova 70 laser (488 nm) and a photomultiplier at an angle of 90°.

Another data set deals with Cos-7 cells. Conditions: cyclodextrin:DNA mass ratios of 10, 15 and 20, 1 μg DNA, FIG. 3.

Values joined by “and” are separate entries in the source; they are usually repeats but may differ in a detail not shown here. Identical values can stand only once. Like-named read-outs stand apart in the source and are kept apart here.

Protocol for Cos-7 cells: The plasmid DNA used for the transfection studies was the pGL3luc plasmid. This plasmid contains the gene that encodes for the firefly luciferase enzyme which allows measurement of gene expression levels in cells.
The cyclodextrin was dissolved in chloroform to a concentration of 1 mg/mL. A slow stream of nitrogen was passed over the solution to remove solvent. The cyclodextrin was then reconstituted with a plasmid DNA solution to give a final cyclodextrin concentration of 1 mg/mL. The DNA concentration used depended on the ratio of cyclodextrin:DNA being studied. This cyclodextrin:DNA solution was then sonicated for 1 hour to facilitate size reduction.
Cos-7 cells were seeded at a density of 30,000 cells per well and grown in 24 well plates in media for 20-24 hours. Prior to transfection studies, the cells were rinsed with serum-free media and then incubated in serum-free media for 1 hour. […] DNA complexes were prepared in a final volume of 100 μL so that 1 μg of DNA complexed with the vectors at the desired mass ratio. This was then added to 400 μL of serum-free media and cells which was left at 37° C. for 4 hours. […] Luciferase expression was then determined using a luciferase assay kit (Promega USA) and results were expressed as Relative Light Units (RLU) of luciferase per pg of protein (Bradford assay). […]

As for `CCCCCCCCOC(=O)CCSCCCO[C@H]1[C@H]2O[C@H]3[C@H](O)[C@@H](OCCCSCCC(=O)OCCCCCCCC)[C@@H](O[C@H]4[C@H](O)[C@@H](OCCCSCCC(=O)OCCCCCCCC)[C@@H](O[C@H]5[C@H](O)[C@@H](OCCCSCCC(=O)OCCCCCCCC)[C@@H](O[C@H]6[C@H](O)[C@@H](OCCCSCCC(=O)OCCCCCCCC)[C@@H](O[C@H]7[C@H](O)[C@@H](OCCCSCCC(=O)OCCCCCCCC)[C@@H](O[C@H]8[C@H](O)[C@@H](OCCCSCCC(=O)OCCCCCCCC)[C@@H](O[C@@H]([C@@H]1O)[C@@H](CSCCN)O2)O[C@@H]8CSCCN)O[C@@H]7CSCCN)O[C@@H]6CSCCN)O[C@@H]5CSCCN)O[C@@H]4CSCCN)O[C@@H]3CSCCN.O=C(O)C(F)(F)F` [heptakis[6-(2′-aminoethylthio)-2-O-octyloxycarbonylethylsulfanylpropyl]-β-cyclodextrin trifluoroacetic acid salt], the “Zaverage (nm)” value is 76 nm and 85 nm in data set [1] (Day 1, filtered 0.45 μm, angle 90°, trifluoroacetic acid salt); 82 nm in data set [1] (Day 7). In addition, in data set [1] (Day 7), the Polydispersity turned out to be 0.251. The “transfection (luciferase expression) compared with naked DNA and DOTAP” value in the data set with Cos-7 cells is “greater than DNA on its own and greater than DOTAP”.
